One test has as its target WDR5 protein (Homo sapiens (Human), UniProt P61964). Put plainly: Surface Plasmon Resonance (SPR) assay. The test is classed as binding. The settings on record: SPR; for residence time: τ=1/koff, read-out: Residence Time (t, min).
A further test has as its system MV4-11 cells. Briefly: Cell proliferation assay (ATPlite). It counts as cell-based. As to conditions: Homo sapiens, MV4-11, 120 h; MV-411 cells, five days; read-out: In vitro whole cell potency in MV-411 cells, (IC50). Here is the method:
MV4-11 cells were seeded into a 96-well plate at 1,000 cells/well in 150 μl medium (Alpha-MEM containing 10% FBS, 100 μg/ml Normocin, and 50 μg/ml Gentamycin, Invitrogen). A HP D300 digital dispenser was used to dose cells with DMSO or test compounds across a 10-point range of concentrations (high dose of 10 μM), and cultures were grown in a humidified 5% CO2 incubator at 37° C. After five days, plates were removed from incubator and equilibrated to room temperature. An equal volume of ATPlite assay reagent was added to each well, and samples were processed according to manufacturer's instructions (Perkin Elmer). Luminescent signal was measured using an Envision plate reader equipped with a US-Luminescence detector.

The target in a further test is MLL1-WRAD2 complex (Homo sapiens (Human), UniProt P61964). Briefly: MLL1-WRAD2 enzyme assay (in vitro methyl transferase assay). The test is classed as biochemical. The settings on record: MLL1-WRAD2 assay; read-out: In vitro MLL1 activity (IC50). Here is the method:
Reaction was initiated with 1 μM 3H-SAM and incubated for 1 hour at 30° C. Reaction mixture was transferred to P81 filter-paper and washed with PBS before detection.

Setting [1] is: Table 1, read-out: WDR5 binding affinity (KD).
Setting [2] is: Table 2, read-out: WDR5 binding affinity SPR (KD).

Like-named read-outs stand apart in the source and are kept apart here.

For orientation: Kd means the free concentration of one partner at which half of the binding sites on the other are occupied at equilibrium, for simple one-to-one binding. For orientation: residence time means the mean lifetime of the complex, commonly the reciprocal of the off-rate. One may read the IC50 as the point on the concentration scale where inhibition reaches its midpoint. Take `CN1CCN(c2ccc(-c3ccnc(N4CCOCC4)c3F)cc2NC(=O)c2c[nH]c(=O)cc2C(F)(F)F)CC1` [Example 39, N-(5-(3-fluoro-2-morpholinopyridin-4-yl)-2-(4-methylpiperazin-1-yl)phenyl)-6-oxo-4-(trifluoromethyl)-1,6-dihydropyridine-3-carboxamide]: the Kd on WDR5 protein (setting [1]) and at WDR5 protein (setting [2]) was 28 nM throughout. The residence time on WDR5 protein was 1.46 min. Moreover, the figures for the IC50 in the test with MV4-11 cells and at MLL1-WRAD2 complex were over 10000 nM and 2510 nM, respectively.
For the molecule `CN1CCN(c2ccc(-c3cc(CN4CC[C@@H](S(C)(=O)=O)C4)ccc3F)cc2NC(=O)c2c[nH]c(=O)cc2C(F)(F)F)CC1` [Example 75, (R)—N-(2′-fluoro-4-(4-methylpiperazin-1-yl)-5′-((3-(methylsulfonyl)pyrrolidin-1-yl)methyl)-[1,1′-biphenyl]-3-yl)-6-oxo-4-(trifluoromethyl)-1,6-dihydropyridine-3-carboxamide], the dissociation constant (Kd) on WDR5 protein (setting [1]) and on WDR5 protein (setting [2]) was 5.9 nM throughout. Moreover, the residence time at WDR5 protein is 5.13 min. The IC50 with MV4-11 cells came out at 1220 nM; at MLL1-WRAD2 complex, 2090 nM.
As to `CN1CCN(c2ccc(-c3ccc(OCC4CC4)nc3F)cc2NC(=O)c2c[nH]c(=O)cc2C(F)(F)F)CC1` [Example 16, N-(5-(6-(cyclopropylmethoxy)-2-fluoropyridin-3-yl)-2-(4-methylpiperazin-1-yl)phenyl)-6-oxo-4-(trifluoromethyl)-1,6-dihydropyridine-3-carboxamide], the Kd at WDR5 protein (setting [1]) and at WDR5 protein (setting [2]) was 10 nM in each case. The residence time at WDR5 protein is 5.25 min. Also, the IC50 in the test with MV4-11 cells was determined as 5970 nM; at MLL1-WRAD2 complex, 1470 nM.
Take `CC1CN(c2ccc(-c3cc(C(=O)NC4CCCCC4)ccc3F)cc2NC(=O)c2c[nH]c(=O)cc2C(F)(F)F)CCN1C` (stereo not shown) [Example 81, N-(5′-(cyclohexylcarbamoyl)-4-(3,4-dimethylpiperazin-1-yl)-2′-fluoro-[1,1′-biphenyl]-3-yl)-6-oxo-4-(trifluoromethyl)-1,6-dihydropyridine-3-carboxamide]: the figures for the Kd on WDR5 protein (setting [1]) and at WDR5 protein (setting [2]) were 6.3 nM and 17.5 nM, respectively. In addition, the residence time on WDR5 protein came out at 0.78 min. The concentration for half-maximal inhibition (IC50) in the test with MV4-11 cells is over 10000 nM; on MLL1-WRAD2 complex, over 30000 nM.
For `CN1CCN(c2ccc(-c3cc(CN4CC[C@@H](N(C)C)C4)ccc3F)cc2NC(=O)c2c[nH]c(=O)cc2C(F)(F)F)CC1` [Example 71, (R)—N-(5′-((3-(dimethylamino)pyrrolidin-1-yl)methyl)-2′-fluoro-4-(4-methylpiperazin-1-yl)-[1,1′-biphenyl]-3-yl)-6-oxo-4-(trifluoromethyl)-1,6-dihydropyridine-3-carboxamide], the Kd at WDR5 protein (setting [1]) and at WDR5 protein (setting [2]) was 4.8 nM in each case. The residence time at WDR5 protein stood at 4.29 min. For the same molecule, the values for the IC50 in the test on MV4-11 cells and on MLL1-WRAD2 complex were 2710 nM and 2070 nM, respectively.
For `CN1CCN(c2ccc(-c3cc(OCC4CC4)ncc3F)cc2NC(=O)c2c[nH]c(=O)cc2C(F)(F)F)CC1` [Example 15, N-(5-(2-(cyclopropylmethoxy)-5-fluoropyridin-4-yl)-2-(4-methylpiperazin-1-yl)phenyl)-6-oxo-4-(trifluoromethyl)-1,6-dihydropyridine-3-carboxamide], the Kd at WDR5 protein (setting [1]) and at WDR5 protein (setting [2]) was 9 nM in each case. Moreover, at WDR5 protein, the residence time was determined as 4.04 min. The IC50 came out at 2260 nM in the test on MV4-11 cells and 2250 nM at MLL1-WRAD2 complex.
On to `C[C@@H]1CN(c2ccc(-c3cc(C(=O)N4CCOCC4)ccc3F)cc2NC(=O)c2c[nH]c(=O)cc2C(F)(F)F)C[C@H](C)N1C` [Example 47, N-(2′-fluoro-5′-(morpholine-4-carbonyl)-4-((3S,5R)-3,4,5-trimethylpiperazin-1-yl)-[1,1′-biphenyl]-3-yl)-6-oxo-4-(trifluoromethyl)-1,6-dihydropyridine-3-carboxamide], for which the dissociation constant (Kd) on WDR5 protein (setting [1]) and on WDR5 protein (setting [2]) was 8 nM throughout. Also, on WDR5 protein, the residence time was found to be 9.58 min. Also, the IC50 is 1990 nM with MV4-11 cells and 2390 nM on MLL1-WRAD2 complex.
Turning to `C[C@@H]1CN(c2ccc(-c3ccc(OCC4CC4)nc3F)cc2NC(=O)c2c[nH]c(=O)cc2C(F)(F)F)C[C@H](C)N1C` [Example 82, N-(5-(6-(cyclopropylmethoxy)-2-fluoropyridin-3-yl)-2-((3R,5S)-3,4,5-trimethylpiperazin-1-yl)phenyl)-6-oxo-4-(trifluoromethyl)-1,6-dihydropyridine-3-carboxamide], the Kd at WDR5 protein (setting [1]) and at WDR5 protein (setting [2]) was 0.7 nM throughout. Besides, the residence time on WDR5 protein was found to be 23 min. Further, the IC50 in the test with MV4-11 cells was found to be 536 nM; on MLL1-WRAD2 complex, 549 nM.
As to `CN1CCN(c2ccc(-c3cc(CN4CCC(N5CCOCC5)CC4)ccc3F)cc2NC(=O)c2c[nH]c(=O)cc2C(F)(F)F)CC1` [Example 70, N-(2′-fluoro-4-(4-methylpiperazin-1-yl)-5′-((4-morpholinopiperidin-1-yl)methyl)-[1,1′-biphenyl]-3-yl)-6-oxo-4-(trifluoromethyl)-1,6-dihydropyridine-3-carboxamide], the Kd at WDR5 protein (setting [1]) and at WDR5 protein (setting [2]) was 4.4 nM each time. In addition, the residence time on WDR5 protein stood at 5.8 min. Further, the IC50 in the test on MV4-11 cells was 1140 nM; at MLL1-WRAD2 complex it was 1110 nM.
With `CCN1CCN(c2ccc(-c3cc(CNC4CCCCC4)ccc3F)cc2NC(=O)c2c[nH]c(=O)cc2C(F)(F)F)CC1` [Example 63, N-(5′-((cyclohexylamino)methyl)-4-(4-ethylpiperazin-1-yl)-2′-fluoro-[1,1′-biphenyl]-3-yl)-6-oxo-4-(trifluoromethyl)-1,6-dihydropyridine-3-carboxamide], the Kd on WDR5 protein (setting [1]) and at WDR5 protein (setting [2]) was over 200 nM each time. The IC50 is over 10000 nM with MV4-11 cells and 5630 nM on MLL1-WRAD2 complex.
For `CN1CCN(c2ccc(-c3ccc(CN4CCOCC4)cc3F)cc2NC(=O)c2c[nH]c(=O)cc2C(F)(F)F)CC1` [Example 38, N-(2′-fluoro-4-(4-methylpiperazin-1-yl)-4′-(morpholinomethyl)-[1,1′-biphenyl]-3-yl)-6-oxo-4-(trifluoromethyl)-1,6-dihydropyridine-3-carboxamide], the Kd on WDR5 protein (setting [1]) and on WDR5 protein (setting [2]) was 8 nM in each case. The residence time on WDR5 protein came to 3.42 min. Also, the values for the IC50 in the test with MV4-11 cells and at MLL1-WRAD2 complex were over 10000 nM and 3990 nM, respectively.
As to `CN1CCN(c2ccc(-c3cc(C(=O)NC4CCCCC4)ccc3F)cc2NC(=O)c2c[nH]c(=O)cc2C(F)(F)F)CC1` [Example 32, N-(5′-(cyclohexylcarbamoyl)-2′-fluoro-4-(4-methylpiperazin-1-yl)-[1,1′-biphenyl]-3-yl)-6-oxo-4-(trifluoromethyl)-1,6-dihydropyridine-3-carboxamide], the Kd at WDR5 protein (setting [1]) and at WDR5 protein (setting [2]) was 6 nM in each case. For the same molecule, on WDR5 protein, the residence time was 9.48 min. For the same molecule, the IC50 in the test on MV4-11 cells was 680 nM; on MLL1-WRAD2 complex, 332 nM.
Consider `CN1CCN(c2ccc(-c3cc(CN4CCOC(C)(C)C4)ccc3F)cc2NC(=O)c2c[nH]c(=O)cc2C(F)(F)F)CC1` [Example 77, N-(5′-((2,2-dimethylmorpholino)methyl)-2′-fluoro-4-(4-methylpiperazin-1-yl)-[1,1′-biphenyl]-3-yl)-6-oxo-4-(trifluoromethyl)-1,6-dihydropyridine-3-carboxamide], for which the Kd at WDR5 protein (setting [1]) and on WDR5 protein (setting [2]) was 4.5 nM each time. Besides, the residence time on WDR5 protein stood at 5.41 min. The values for the IC50 with MV4-11 cells and on MLL1-WRAD2 complex were 1280 nM and 907 nM, respectively.
Consider `CN1CCN(c2ccc(-c3cc(CN4CCNCC4)ccc3F)cc2NC(=O)c2c[nH]c(=O)cc2C(F)(F)F)CC1` [Example 72, N-(2′-fluoro-4-(4-methylpiperazin-1-yl)-5′-(piperazin-1-ylmethyl)-[1,1′-biphenyl]-3-yl)-6-oxo-4-(trifluoromethyl)-1,6-dihydropyridine-3-carboxamide], for which the Kd on WDR5 protein (setting [1]) and on WDR5 protein (setting [2]) was 5.1 nM in each case. Moreover, the residence time on WDR5 protein amounted to 1.16 min. The figures for the IC50 in the test with MV4-11 cells and at MLL1-WRAD2 complex were over 10000 nM and 5930 nM, respectively.
On to `CN1CCN(c2ccc(-c3cc(CN4CC[C@@H](O)C4)ccc3F)cc2NC(=O)c2c[nH]c(=O)cc2C(F)(F)F)CC1` [Example 69, (R)—N-(2′-fluoro-5′-((3-hydroxypyrrolidin-1-yl)methyl)-4-(4-methylpiperazin-1-yl)-[1,1′-biphenyl]-3-yl)-6-oxo-4-(trifluoromethyl)-1,6-dihydropyridine-3-carboxamide], for which the Kd on WDR5 protein (setting [1]) and at WDR5 protein (setting [2]) was 5.4 nM in each case. In addition, the residence time at WDR5 protein was determined as 2.36 min. Further, the IC50 in the test on MV4-11 cells was over 10000 nM; at MLL1-WRAD2 complex, 2890 nM.
Turning to `C[C@@H]1CN(c2ccc(-c3nc(N4CCOCC4)ncc3F)cc2NC(=O)c2c[nH]c(=O)cc2C(F)(F)F)C[C@H](C)N1C` [Example 125, N-(5-(5-fluoro-2-morpholinopyrimidin-4-yl)-2-((3S,5R)-3,4,5-trimethylpiperazin-1-yl)phenyl)-6-oxo-4-(trifluoromethyl)-1,6-dihydropyridine-3-carboxamide], the Kd at WDR5 protein (setting [1]) was found to be 3 nM; on WDR5 protein (setting [2]), 3.1 nM. Further, at WDR5 protein, the residence time was 11.6 min. In addition, the half-maximal inhibitory concentration (IC50) in the test on MV4-11 cells turned out to be 87 nM; on MLL1-WRAD2 complex, 49 nM.

These data come from US11174250B2, “Substituted carboxamides as inhibitors of WDR5 protein-protein binding” (PROPELLON THERAPEUTICS INC., priority 2016, dated 2021).
